Measured values reported in paper PMC11820944, “Safirinium Fluorescent “Click” Molecular Probes: Synthesis, CuAAC Reactions, and Microscopic Imaging” (Molecules, 2025).

What was measured:
CHO-K1 cells = assay: Cellular uptake and distribution by fluorescence (confocal) microscopy; type: cell-based, Chinese hamster; conditions: 10 µM, 30 min
Description: Figure 6 Cellular uptake and intracellular distribution of selected probes (1 and 6) and triazole derivatives (11, 12, 13, and 15) in Chinese hamster ovary cells. CHO-K1 cells were cultured overnight and then incubated with the tested compounds (10 μM). Representative images (100× magnification) illustrating intracellular distribution of the compounds in CHO-K1 cells were captured after 30 min of incubation with the tested compounds. Scale bar = 20 μm.
CHO-K1 cells were seeded at a density of 2 × 10^5/well in 12-well plates containing cover slips at the bottom and cells were incubated for 24 h. Then, cells were fixed in 3.7% formaldehyde in PBS for 10 min in 37 °C, washed twice with PBS, and stained with compound solution (10 µM) for 30 min. After this time, the cells were rinsed 2 times with Gibco FluoroBrite DMEM and a coverslip was placed on a stock carrier with drops of culture medium. Finally, slides were mounted in ProLong™ Glass Antifade Mountant and visualized under an A1 confocal system built on a Nikon Eclipse Ti-E microscope (Japan) equipped with 405 and 561 nm diode lasers and a Plan Apo 100×/1.4 Oil DIC objective.

[1] = Chemical stability of aqueous solution in daylight, RP-HPLC with fluorescence detection; type: physicochemical
Description: To assess the chemical stability of Safirinium-based alkyne probes for RP-HPLC analysis, we developed a preliminary RP-HPLC method with fluorescent detection for the alkyne probe 1. This was accomplished using an LC-PCN column and a simple isocratic elution approach. Subsequently, we prepared a 10^−6 M aqueous solution of probe 1 and kept it exposed to natural daylight on a laboratory bench for 7 days. […] Assuming pseudo-first-order kinetics, it can be calculated that probe 1 can remain stable (95%) under such conditions for 12 h.
RP-HPLC analyses with fluorescence detection (Method B) were performed on a LaChrom Elite HPLC system, (VWR-Hitachi, Japan), equipped with a L-2130 pump, a L-2485 FL detector, a L-2350 column oven, and an L-2200 autosampler, the system was controlled with EZChrom Elite version 3.2, Agilent software. Separations were performed on a SUPELCOSIL LC-PCN 250 × 4.6 mm column with 5 µm grain size, under 1 mL/min isocratic elution with 50:50 v/v water: acetonitrile mixture, acidified with 0.1% formic acid. Injection volume was 20 µL; 10^−6 mol/dm^3 solution of probe 1 in water was prepared in a clear HPLC sample vial and analyzed directly after preparation and after 7 days (168 h) of standing on a lab bench, exposed to natural daylight at room temperature. Example chromatograms are presented in the electronic supporting information.

[2] = Fluorescence emission spectra and quantum yields (comparative method); type: physicochemical; conditions: for λ Emission: 1·10^-6 mol/dm^3, 365 nm excitation; for Fluorescence Quantum Yield: against A1 standard
Description: Fluorescence spectra were recorded using a Hitachi F-70000 spectrofluorimeter (P VWR-Hitachi, Japan), for 1 × 10^−6 mol/dm^3 solutions of the compounds in water and acetonitrile, at 365 nm excitation wavelength, using 5 nm excitation and 2.5 nm emission slits, and 700 V photomultiplier voltage. The spectra (Figures S2 and S4) were recorded in 400–700 nm range. The 1 × 10^−6 mol/dm^3 solutions were prepared by 100-fold dilution of the solutions used for absorption measurement.
Quantum yields of fluorescence (Table 1) were determined using the comparative method, from Formula (1), using the recorded absorption and emission spectra and diethyl Safirinium P zwitterion A1 (ϕ = 0.755 in water) as standard.(1) Φ=ΦstdFAstdnstd2/FstdAn^2 where ϕ, ϕstd—quantum yields; F, Fstd—integrals under fluorescence emission curves; A, Astd—absorbance at excitation wavelength, and n, nstd—refractive indices, for the compound and standard (std subscript), respectively.

[3] = MTT cell viability assay, NIH-3T3 cells; type: cell-based; conditions: mouse, 24 h incubation, read-out: IC50 (cytotoxicity, cell viability)
Description: (§1) CHO-K1 cell line was derived as a subclone from the parental CHO cell line, which was initiated from a biopsy of an ovary of an adult, female Chinese hamster commercially available in ATCC (CCL-61™). NIH-3T3 cell line was obtained from DSMZ, the German Collection of Microorganisms and Cell Cultures. CHO-K1 and NIH-3T3 cells were cultivated in F-12K Medium (ATCC 30-2004) and Dulbecco’s MEM with Glutamax™ 1 Medium (Gibco, Paisley, UK), respectively. Culture media were supplemented with fetal bovine serum (FBS, Gibco, Thermo Fisher Scientific, Waltham, MA, USA) to a final concentration of 10% and antibiotic to final concentration of 1% (pent/strept, Gibco, Thermo Fisher Scientific, Waltham, MA, USA). Cells were cultured in standard culture conditions (5% CO2, 37 °C, 95% humidity).
Cell viability was determined by the 3-(4,5-dimethylthiazol-2-yl)-2,5-diphenyltetrazolium bromide (MTT, Sigma Aldrich, Burlington, MA, USA) assay. Cells were seeded into 96-well plates at density of 2 × 10^4 cell/well and cultured in the presence of compounds (1–4, 6–9, 11–13, and 15) at concentration range 1.56–100 µM for 24 h. The MTT reagent (final concentration 0.5 mg/mL) was added to each well for 3 h, and then formazan crystals were dissolved in DMSO. The absorbance was measured at 570 nm (SpectraMax® iD3, Molecular Devices, San Jose, CA, USA) and the experiment was performed two times in duplicates. Cells viability was expressed as a percentage of viability (in comparison to non-treated cells normalized to 100%). Data were analyzed using GraphPad Prism Software (GraphPad Software, Inc., San Diego, CA, USA, version 10.3.1).

in vitro = type: cell-based; conditions: Chinese hamster
Description: as §1
Cell viability was determined by the 3-(4,5-dimethylthiazol-2-yl)-2,5-diphenyltetrazolium bromide (MTT, Sigma Aldrich, Burlington, MA, USA) assay. […] The absorbance was measured at 570 nm (SpectraMax® iD3, Molecular Devices, San Jose, CA, USA) and the experiment was performed two times in duplicates. Cells viability was expressed as a percentage of viability (in comparison to non-treated cells normalized to 100%). Data were analyzed using GraphPad Prism Software (GraphPad Software, Inc., San Diego, CA, USA, version 10.3.1).

[4] = set-up: method as in PMID 23893376; conditions: in water; cited from earlier work

| SMILES | Cellular uptake and intracellular distribution (CHO-K1 cells) | λ Emission ([2]; Acetonitrile) | Fluorescence Quantum Yield ([2]; Acetonitrile) | λ Emission ([2]; H2O) | Fluorescence Quantum Yield ([2]; H2O) | IC50 at 24 h [3] | further results |
| --- | --- | --- | --- | --- | --- | --- | --- |
| C#CCNC(=O)C1=C(C)C=C(C)N2C[N+](CC)(CC)N=C12.[Br-] [Compound 1, 2,2-Diethyl-5,7-dimethyl-8-[(prop-2-yn-1-yl)carbamoyl]-2H,3H-[1,2,4]triazolo [4,3-a]pyridin-2-ium bromide] | capable of entering the cytoplasm of the cells; however, they did not penetrate the nuclei | 443 nm | 0.86 | 446 nm | 1.00 | – | half-life ([1]; 10^-6 M aqueous solution exposed to natural daylight): ~168 h; RP-HPLC peak area decrease ([1]; 10^-6 M aqueous solution, natural daylight, room temperature, 7 days): 50%; Time of remaining stable (95%) ([1]; aqueous solution exposed to daylight, assuming pseudo-first-order kinetics): 12 h |
| C#CCNC(=O)C1=C(C)C=C(C)N2C[N+](CCCCCCCC)(CCCCCCCC)N=C12 [Compound 2, 5,7-Dimethyl-2,2-dioctyl-8-(prop-2-yn-1-ylcarbamoyl)-2,3-dihydro-[1,2,4]triazolo[4,3-a]pyridin-2-ium bromide] | – | – | – | – | – | 17.5 µM | – |
| C#CCNC(=O)C1=Cc2ccccc2N2C[N+](CC)(CC)N=C12.[Br-] [Compound 3, 2,2-Diethyl-4-(prop-2-yn-1-ylcarbamoyl)-1,2-dihydro-[1,2,4]triazolo[4,3-a]quinolin-2-ium bromide] | – | 455 nm | 0.71 | 462 nm | 0.62 | – | – |
| C#CCNC(=O)C1=Cc2ccccc2N2C[N+](CCCCCCCC)(CCCCCCCC)N=C12 [Compound 4, 2,2-Dioctyl-4-(prop-2-yn-1-ylcarbamoyl)-1,2-dihydro-[1,2,4]triazolo[4,3-a]quinolin-2-ium bromide] | – | – | – | – | – | 8.7 µM | IC50 at 24 h (in vitro): 17.3 µM |
| CC[N+]1(CC)CN2C(C)=CC(C)=C(C(=O)NCCCCCN=[N+]=[N-])C2=N1.[Br-] [Compound 6, 8-((5-Azidopentyl)carbamoyl)-2,2-diethyl-5,7-dimethyl-2,3-dihydro-[1,2,4]triazolo[4,3-a]pyridin-2-ium bromide] | capable of entering the cytoplasm of the cells; however, they did not penetrate the nuclei | – | – | – | – | – | – |
| CCCCCCCC[N+]1(CCCCCCCC)CN2C(C)=CC(C)=C(C(=O)NCCCCCN=[N+]=[N-])C2=N1 [Compound 7, 8-((5-Azidopentyl)carbamoyl)-5,7-dimethyl-2,2-dioctyl-2,3-dihydro-[1,2,4]triazolo[4,3-a]pyridin-2-ium bromide] | – | – | – | – | – | 26.4 µM | – |
| CC[N+]1(CC)CN2C(=N1)C(C(=O)NCCCCCN=[N+]=[N-])=Cc1ccccc12.[Br-] [Compound 8, 4-((5-Azidopentyl)carbamoyl)-2,2-diethyl-1,2-dihydro-[1,2,4]triazolo[4,3-a]quinolin-2-ium bromide] | – | 452 nm | 0.68 | 459 nm | 0.60 | – | – |
| CCCCCCCC[N+]1(CCCCCCCC)CN2C(=N1)C(C(=O)NCCCCCN=[N+]=[N-])=Cc1ccccc12 [Compound 9, 4-((5-Azidopentyl)carbamoyl)-2,2-dioctyl-1,2-dihydro-[1,2,4]triazolo[4,3-a]quinolin-2-ium bromide] | – | – | – | – | – | 13 µM | IC50 at 24 h (in vitro): 11 µM |
| CCCCCCCCCCCCCCn1cc(CNC(=O)C2=C(C)C=C(C)N3C[N+](CC)(CC)N=C23)nn1.[Br-] [Compound 11, 2,2-Diethyl-5,7-dimethyl-8-(((1-tetradecyl-1H-1,2,3-triazol-4-yl)methyl)carbamoyl)-2,3-dihydro-[1,2,4]triazolo[4,3-a]pyridin-2-ium bromide] | capable of entering the cytoplasm of the cells; however, they did not penetrate the nuclei | 443 nm | 0.86 | 446 nm | 0.28 | – | – |
| CC[N+]1(CC)CN2C(=N1)C(C(=O)NCc1cn(C3O[C@H](COC(C)=O)[C@@H](OC(C)=O)[C@H](OC(C)=O)[C@H]3OC(C)=O)nn1)=Cc1ccccc12.[Br-] (stereo partly drawn) [Compound 12, 2,2-Diethyl-4-(((1-((3R,4S,5R,6R)-3,4,5-triacetoxy-6-(acetoxymethyl)tetrahydro-2H-pyran-2-yl)-1H-1,2,3-triazol-4-yl)methyl)carbamoyl)-1,2-dihydro-[1,2,4]triazolo[4,3-a]quinolin-2-ium bromide] | capable of entering the cytoplasm of the cells; however, they did not penetrate the nuclei | – | – | – | – | – | – |
| CC[N+]1(CC)CN2C(=N1)C(C(=O)NCc1cn(C3CC(n4cc(C)c(=O)[nH]c4=O)OC3CO)nn1)=Cc1ccccc12 (stereo not shown) [Compound 13, 4-(((1-((2-(hydroxymethyl)-5-(5-methyl-2,4-dioxo-1,2,3,4-tetrahydropyrimidin-1-yl)oxolan-3-yl)-1H-1,2,3-triazol-4-yl)methyl)carbamoyl)-2,2-diethyl-1,2-dihydro-[1,2,4]triazolo[4,3-a]quinolin-2-ium bromide] | capable of entering the cytoplasm of the cells; however, they did not penetrate the nuclei | 452 nm | 0.45 | 462 nm | 0.59 | – | – |
| CC[N+]1(CC)CN2C(=N1)C(C(=O)NCCCCCn1cc(CO)nn1)=Cc1ccccc12.[Br-] [Compound 15, 2,2-Diethyl-4-({5-[4-(hydroxymethyl)-1H-1,2,3-triazol-1-yl]pentyl}carbamoyl)-1H,2H-[1,2,4]triazolo[4,3-a]quinolin-2-ium bromide] | capable of entering the cytoplasm of the cells; however, they did not penetrate the nuclei | 454 nm | 0.53 | 459 nm | 0.55 | – | – |
| CC[N+]1(CC)CN2C(C)=CC(C)=C(C(=O)[O-])C2=N1 [Compound A1] | – | – | – | – | – | – | Fluorescence quantum yield (ϕ) of standard [4]: 0.755 |
